# Results published in EP0549006A2, “Ammonium and phosphonium salts and their use as biocides” (FMC CORPORATION (UK) LIMITED, priority 1991, dated 1993).
# Legend:
# bacterial mixed culture = format: cell-based; conditions: 24 hours at 30 °C in Tyrode solution, growth on Caso Peptone plates; for Effect after 24 h 10: 10 mg/l; for Effect after 24 h 30: 30 mg/l; for Effect after 24 h 60: 60 mg/l
# Pseudomonas fluorescens = test: Bacterial minimal inhibiting concentration (MIC) in liquid culture, turbidity evaluation; format: cell-based; conditions: strain F: Pseudomonas fluorescens; Caso Peptone Bouillon, 24 hours at 30 °C; tested at 10, 30, 60 and 100 mg/l
# Serratia marcescens = test: as above; format: cell-based; conditions: strain B: Serratia marcescens; Caso Peptone Bouillon, 24 hours at 30 °C; tested at 10, 30, 60 and 100 mg/l
# Proteus vulgaris = test: as above; format: cell-based; conditions: strain E: Proteus vulgaris; Caso Peptone Bouillon, 24 hours at 30 °C; tested at 10, 30, 60 and 100 mg/l
# Enterobacter aerogenes = test: as above; format: cell-based; conditions: strain C: Enterobacter aerogenes, Caso Peptone Bouillon, 24 hours at 30 °C, tested at 10, 30, 60 and 100 mg/l
# [1] = Solubility of the isolated product (water, alcohol); format: physicochemical
# Alcaligenes dentrificans = test: Bacterial minimal inhibiting concentration (MIC) in liquid culture, turbidity evaluation; format: cell-based; conditions: strain D: Alcaligenes dentrificans; Caso Peptone Bouillon, 24 hours at 30 °C; tested at 10, 30, 60 and 100 mg/l
# Bacillus subtilis = test: as above; format: cell-based; conditions: strain A: Bacillus subtilis; Caso Peptone Bouillon, 24 hours at 30 °C; tested at 10, 30, 60 and 100 mg/l
Molecule,Effect after 24 h 10 (bacterial mixed culture),Effect after 24 h 30 (bacterial mixed culture),Effect after 24 h 60 (bacterial mixed culture),Effect after 24 h 100 mg/l (bacterial mixed culture),minimal inhibiting concentration F (Pseudomonas fluorescens) [µg/mL],minimal inhibiting concentration B (Serratia marcescens) [µg/mL],minimal inhibiting concentration E (Proteus vulgaris) [µg/mL],minimal inhibiting concentration C (Enterobacter aerogenes) [µg/mL],solubility in water [1],minimal inhibiting concentration D (Alcaligenes dentrificans) [µg/mL],minimal inhibiting concentration A (Bacillus subtilis) [µg/mL],solubility ([1]; in water) [µg/mL],MIC (Pseudomonas fluorescens) [µg/mL],MIC (Serratia marcescens) [µg/mL],MIC (Proteus vulgaris) [µg/mL],"MIC (Enterobacter aerogenes; Klebsiella aerogenes, 24 h) [µg/mL]",MIC (Alcaligenes dentrificans) [µg/mL],MIC (Bacillus subtilis) [µg/mL],solubility in alcohol ([1]; alcohol)
"CCCCCCCCCCCCCC[P+](CCCC)(CCCC)CCCC [Example 7, [(n-C4H9)3P n-C14H29]^+[lO4]^-]","(-) (1-10 colonies, bacteria killed for the most part)",-,-,-,30,30,10,30,difficultly soluble in water,10,10,,,,,,,,
"CCCCCCCCCCCCCC[P+](CCCC)(CCCC)CCCC [Example 6, ([n-C4H9)3P n-C14H29]^+[B(C6H5)4]^-]",,,,,,,,,,,,≤ 20,,,,,,,
[(CH3)2N(CH2C6H5) n-C14H29]3^+[Fe(CN)6]^3- [Example 4],,,,,<100,<100,<100,<100,,<100,<100,,,,,,,,
[(n-C4H9)3P n-C14H29]^+(ICIBr]^- [Example 9],-,-,-,,30,30,10,30,,10,10,,,,,,,,
"[(n-C4H9)3P n-C, 4H29]^+[ICI2]^- [Example 8]",-,-,-,,30,30,10,30,,10,10,,,,,,,,
"CCCCCCCCCCCCCC[N+](C)(C)Cc1ccccc1 [Example 5, [(CH3)2N(CH2C6H5)n-C14H29]^+[S2P(O^iC3H7)2]^-]",,"(-) (1-10 colonies, bacteria killed for the most part)",-,-,,,,,difficultly soluble in water,,,,< 100,< 100,< 100,< 100,< 100,< 100,
"CCCCCCCCCCCCCC[P+](CCCC)(CCCC)CCCC [Example 3, [(n-C4H9)3P n-C14H29]^+NO3^-]","(-) (1-10 colonies, bacteria killed for the most part)","(-) (1-10 colonies, bacteria killed for the most part)",-,-,30,30,10,10,difficultly soluble in water,10,10,,,,,,,,readily soluble in alcohol
"CCCCCCCCCCCCCC[P+](CCCC)(CCCC)CCCC [Example 2, [(n-C4H9)3P n-C14H29]^+HSO4-]",-,-,-,,,,,10,optionally miscible with water,,,,30,30,10,,10,10,
[(n-C4H9)3P n-G14H29]^+SCN^- [Example 1],-,-,-,-,30,30,10,10,,10,10,,,,,,,,
